Reference: ChEMBL document CHEMBL4417629, “Inhibitors of RAD52 Recombination Protein and Methods Using Same” (2018)
Residue numbers refer to the chain shown, from its start. Values belong to the compound of their own block, whether it stands above or below them. The source made the active and inactive calls. The calls are words filed in the database; no cut-off is given here.

Legend:
[1] = molecular target: T1, DNA repair protein RAD51 homolog 1 (Homo sapiens) (UniProt Q06609); assay: Inhibition of RAD51 (unknown origin) assessed as inhibition of DNA pairing by measuring D-loop formation between [32P]-ssDNA and homologous supercoiled pUC19 DNA at 10 times RAD52 IC50 incubated for 15 mins by gel electrophoresis method relative to control
T1 sequence (whole entry): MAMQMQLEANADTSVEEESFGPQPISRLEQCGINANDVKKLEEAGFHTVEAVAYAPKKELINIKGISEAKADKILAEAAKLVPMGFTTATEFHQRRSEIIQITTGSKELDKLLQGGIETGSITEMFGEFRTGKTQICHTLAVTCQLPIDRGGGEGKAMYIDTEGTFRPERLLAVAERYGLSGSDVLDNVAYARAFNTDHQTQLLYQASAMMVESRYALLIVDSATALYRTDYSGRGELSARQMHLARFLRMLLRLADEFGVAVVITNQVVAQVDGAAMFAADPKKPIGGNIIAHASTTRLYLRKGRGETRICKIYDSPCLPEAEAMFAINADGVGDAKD

[2] = molecular target: T2, DNA repair protein RAD52 homolog (Homo sapiens) (UniProt P43351); assay: Inhibition of RAD52 (unknown origin) assessed as inhibition of DNA pairing using [32P]-ssDNA by measuring D-loop formation incubated for 15 mins by gel electrophoresis method
T2 sequence (whole entry): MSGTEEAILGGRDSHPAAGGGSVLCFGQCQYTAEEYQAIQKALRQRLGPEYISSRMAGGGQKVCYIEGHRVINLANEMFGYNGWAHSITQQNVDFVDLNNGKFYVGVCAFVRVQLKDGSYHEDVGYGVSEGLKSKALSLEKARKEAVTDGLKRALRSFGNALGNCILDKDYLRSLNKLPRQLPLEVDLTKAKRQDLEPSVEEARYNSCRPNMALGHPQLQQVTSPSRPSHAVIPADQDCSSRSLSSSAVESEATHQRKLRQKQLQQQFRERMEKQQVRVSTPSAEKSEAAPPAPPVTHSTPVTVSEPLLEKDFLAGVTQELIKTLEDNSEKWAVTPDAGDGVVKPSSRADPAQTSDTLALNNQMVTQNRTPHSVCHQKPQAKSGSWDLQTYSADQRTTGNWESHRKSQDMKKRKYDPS

[3] = molecular target: T1, DNA repair protein RAD51 homolog 1 (Homo sapiens); assay: Inhibition of RAD51 (unknown origin) assessed as inhibition of DNA pairing by measuring D-loop formation between [32P]-ssDNA and homologous supercoiled pUC19 DNA at 30 uM incubated for 15 mins by gel electrophoresis method relative to control
[4] = organism: Homo sapiens; assay: Growth inhibition of BRCA1-deficient human UWB1.289 cells at 2.5 to 10 uM following media refreshment every 3 days and measured on day 10 by CellTiter-Glo assay; type: functional
[5] = tested on: CAPAN-1; assay: Growth inhibition of BRCA2-deficient human Capan1 cells at 2.5 to 10 uM following media refreshment every 3 days and measured on day 10 by CellTiter-Glo assay; type: functional, cell-based
[6] = tested on: Salmon testes DNA; assay: Binding affinity to salmon sperm DNA incubated for 20 mins by acridine orange displacement based fluorescence polarization assay; type: nucleic-acid assay; conditions: Salmonidae
[7] = molecular target: T2, DNA repair protein RAD52 homolog (Homo sapiens); assay: Inhibition of RAD52 in human U2OS cells co-expressing SSA-GFP assessed as inhibition of repair of I-Scel-induced double stranded breaks by measuring green fluorescence at 30 uM by flow cytometry (reference value: 7.1%); type: cell-based; set-up: scale not given: the % may be the effect or the level left
[8] = molecular target: T2, DNA repair protein RAD52 homolog (Homo sapiens); assay: Inhibition of RAD52 in human U2OS cells co-expressing SSA-GFP assessed as inhibition of repair of I-Scel-induced double stranded breaks by measuring green fluorescence at 15 uM by flow cytometry (reference value: 7.1%); type: cell-based; set-up: scale not given: the % may be the effect or the level left
[9] = molecular target: T3, DNA repair protein RAD52 homolog (Homo sapiens, UniProt P43351); assay: Effect on RAD52 (unknown origin) expressed in BCR-ABL1-positive and BRCA1-deficient mouse 32Dcl3 cells expressing GFP-RAD52 assessed as induction of RAD52 foci formation by AlexaFluor-594 staining based inverted fluorescence microscopy; type: cell-based
T3 sequence (P43351 whole entry): T2 sequence (whole entry)

[10] = molecular target: T2, DNA repair protein RAD52 homolog (Homo sapiens); assay: Inhibition of RAD52 in human U2OS cells co-expressing SSA-GFP assessed as inhibition of repair of I-Scel-induced double stranded breaks by measuring green fluorescence at 5 uM by flow cytometry (reference value: 7.1%); type: cell-based; set-up: scale not given: the % may be the effect or the level left
[11] = molecular target: T2, DNA repair protein RAD52 homolog (Homo sapiens); assay: Inhibition of RAD52 (unknown origin) expressed in BCR-ABL1-positive and BRCA1-deficient mouse 32Dcl3 cells expressing GFP-RAD52 assessed as cisplatin-induced RAD52 foci formation by measuring fraction of cell without foci at 2.5 uM by AlexaFluor-594 staining based inverted fluorescence microscopy (reference value: 48.4 +/- 6.2%); set-up: scale not given: the % may be the effect or the level left
[12] = tested on: U2OS; assay: Effect on homology dependent recombination in human U2OS cells co-expressing DR-GFP assessed as measuring green fluorescence at 20 uM flow cytometry (reference value: 7.13%); type: functional
[13] = molecular target: T4, DNA repair protein RAD51 homolog 1 (Mus musculus) (UniProt Q08297); assay: Inhibition of RAD51 in BCR-ABL1-positive and BRCA1-proficient mouse 32Dcl3 cells assessed as reduction in cisplatin-induced RAD51 foci formation by AlexaFluor-594 staining based inverted fluorescence microscopy
T4 sequence (whole entry): T1 sequence (whole entry) with N10S, F46Y, A76T, A194G

[14] = molecular target: T5, DNA repair protein RAD51 homolog 1 (Mus musculus, UniProt Q08297); assay: Induction of RAD51 foci formation in BCR-ABL1-positive and BRCA1-proficient mouse 32Dcl3 cells by AlexaFluor-594 staining based inverted fluorescence microscopy
T5 sequence (Q08297 whole entry): T1 sequence (whole entry) with N10S, F46Y, A76T, A194G

[15] = tested on: U2OS; assay: Effect on GFP+ positive cells in human U2OS cells co-expressing pMX-GFP up to 30 uM incubated for 48 hrs by flow cytometry relative to control; type: ADME, cell-based
[16] = tested on: U2OS; assay: Effect on homology dependent recombination in human U2OS cells co-expressing DR-GFP at 10 to 30 uM flow cytometry; type: functional, cell-based
[17] = molecular target: T2, DNA repair protein RAD52 homolog (Homo sapiens); assay: Inhibition of RAD52 in human U2OS cells co-expressing SSA-GFP assessed as inhibition of repair of I-Scel-induced double stranded breaks by measuring green fluorescence at 10 uM by flow cytometry (reference value: 7.1%); type: cell-based; set-up: scale not given: the % may be the effect or the level left
[18] = molecular target: T2, DNA repair protein RAD52 homolog (Homo sapiens); assay: Inhibition of RAD52 in human U2OS cells co-expressing SA-GFP assessed as reduction in single strand DNA annealing at 30 uM incubated for 48 hrs by GFP+ positive cells detection based flow cytometry relative to control; type: cell-based
[19] = tested on: U2OS; assay: Effect on homology dependent recombination in human U2OS cells co-expressing DR-GFP assessed as measuring green fluorescence at 15 uM flow cytometry (reference value: 7.13%); type: functional
[20] = tested on: U2OS; assay: Effect on homology dependent recombination in human U2OS cells co-expressing DR-GFP assessed as measuring green fluorescence at 30 uM flow cytometry (reference value: 7.13%); type: functional
[21] = molecular target: T2, DNA repair protein RAD52 homolog (Homo sapiens); assay: Inhibition of RAD52 (unknown origin) expressed in BCR-ABL1-positive and BRCA1-deficient mouse 32Dcl3 cells expressing GFP-RAD52 assessed as cisplatin-induced RAD52 foci formation at 2.5 uM by AlexaFluor-594 staining based inverted fluorescence microscopy (reference value: 38.7 +/- 10%); type: cell-based; set-up: scale not given: the % may be the effect or the level left
[22] = tested on: U2OS; assay: Effect on homology dependent recombination in human U2OS cells co-expressing pMX-GFP at 10 to 30 uM by flow cytometry; type: functional, cell-based
[23] = tested on: U2OS; assay: Effect on homology dependent recombination in human U2OS cells co-expressing DR-GFP assessed as measuring green fluorescence at 10 uM flow cytometry (reference value: 7.13%); type: functional
[24] = organism: Homo sapiens; assay: Growth inhibition of BRCA1-proficient human CML cells at 2.5 to 10 uM treated with compound on days 0 and 2 and measured on day 4 by trypan blue staining based assay; type: functional
[25] = molecular target: T2, DNA repair protein RAD52 homolog (Homo sapiens); assay: Inhibition of RAD52 in human U2OS cells co-expressing SSA-GFP assessed as inhibition of repair of I-Scel-induced double stranded breaks by measuring green fluorescence at 20 uM by flow cytometry (reference value: 7.1%); type: cell-based; set-up: scale not given: the % may be the effect or the level left
[26] = molecular target: T2, DNA repair protein RAD52 homolog (Homo sapiens); assay: Inhibition of RAD52 in human U2OS cells co-expressing SA-GFP assessed as reduction in single strand DNA annealing incubated for 48 hrs by GFP+ positive cells detection based flow cytometry; type: cell-based
[27] = molecular target: T2, DNA repair protein RAD52 homolog (Homo sapiens); assay: Inhibition of RAD52 (unknown origin) expressed in BCR-ABL1-positive and BRCA1-deficient mouse 32Dcl3 cells expressing GFP-RAD52 assessed as reduction in cisplatin-induced RAD52 foci formation at 2.5 uM by AlexaFluor-594 staining based inverted fluorescence microscopy relative to control; type: cell-based
[28] = tested on: U2OS; assay: Effect on homology dependent recombination in human U2OS cells co-expressing DR-GFP assessed as measuring green fluorescence at 5 uM flow cytometry (reference value: 7.13%); type: functional
[29] = organism: Homo sapiens; assay: Growth inhibition of BCR-ABL1-positive and BRCA1-deficient human CML cells at 2.5 to 10 uM treated with compound on days 0 and 2 and measured on day 4 by trypan blue staining based assay; type: functional

inhibition [1]: 112%
inhibition [2]: Dose-dependent effect
inhibition [3]: > 90%
Compound: Cc1cc(N2CCN(C)CC2)nc2ccc(NC(S)=NCCCN3CCN(C)CC3)cc12

inhibition [1]: 58.6%
inhibition [2]: Dose-dependent effect
inhibition [3]: > 90%
Compound: CCCCN(CC)CCNC(=O)c1cc2c(-c3ccc(Cl)cc3)nn(C)c2s1
growth inhibition (GI) [4]: Active
growth inhibition (GI) [5]: Active

inhibition [1]: 97.5%
inhibition [2]: Dose-dependent effect
inhibition [3]: > 90%
Compound: Cc1c(C(=O)Nc2ccc(S(=O)(=O)N(C)C3CCN(C)CC3)cc2)oc2c(Cl)cccc12

Activity [6]: inactive
Activity [7]: 2.43%
Activity [8]: 4.08%
Activity [10]: 6.54%
Activity [11]: 57.6%
inhibition [13]: inactive
Activity [17]: 6.28%
fold change (FC) [18]: 3.4
Activity [21]: 17%
inhibition [2]: Dose-dependent effect
Activity [25]: 4.94%
inhibition [3]: > 90%
inhibition [26]: Dose-dependent effect
fold change (FC) [27]: 2 to 2.5
Compound: CCN(CC)CCN=C(S)Nc1ccc2nc(N3CCN(C)CC3)cc(C)c2c1
Activity [9]: Non-Toxic
Activity [12]: 6.2%
Activity [14]: Non-Toxic
Activity [15]: Non-Toxic
Activity [16]: inactive
Activity [19]: 5.7%
Activity [20]: 5.18%
growth inhibition (GI) [4]: Active
Activity [22]: inactive
Activity [23]: 6.68%
growth inhibition (GI) [24]: inactive
growth inhibition (GI) [5]: Active
Activity [28]: 6.98%
growth inhibition (GI) [29]: Active

Activity [6]: inactive
inhibition [1]: 75.6%
Activity [11]: 71.9%
inhibition [2]: Dose-dependent effect
inhibition [3]: > 90%
fold change (FC) [27]: 2 to 2.5
Compound: COc1ccc(OC)c(Nc2nc(NCCCO)c3ccccc3n2)c1
growth inhibition (GI) [4]: Active
growth inhibition (GI) [5]: Active

inhibition [1]: 92.5%
inhibition [2]: Dose-dependent effect
inhibition [3]: > 90%
Compound: Cc1ccc(C(=O)c2oc3ccc(Cl)cc3c2NC(=O)CN2CCN(C)CC2)cc1

inhibition [1]: 102%
inhibition [2]: Dose-dependent effect
inhibition [3]: > 90%
Compound: CCN(CC)CCCN(Cc1cc2cc3c(cc2nc1O)OCO3)C(S)=NCCCN(C)C

inhibition [1]: 89.7%
inhibition [2]: Dose-dependent effect
inhibition [3]: > 90%
Compound: COc1ccccc1Nc1nc(NCCCO)c2ccccc2n1
growth inhibition (GI) [4]: Active
growth inhibition (GI) [5]: Active
